Measured values taken from patent publication US9303009B2, “Migrastatins and uses thereof” (Sloan-Kettering Institute for Cancer Research, priority 2011, dated 2016).

What was measured:
[1] = tested on: A549 cells; test: in vitro wound-healing (scratch) assay; type: cell-based, human; conditions: for migration in response to a scratch wound: 100 μM
Experimental: This Example evaluates the anti-metastatic properties of new migrastatin analogs by assessing their ability to inhibit in vitro cancer cell migration in a wound-healing assay and their chemotaxis in a transwell migration assay. […] Similar results were obtained with a panel of human lung cancer cell lines (H1975, H647, H522, H1703, data not shown).
For the results depicted in FIG. 3, A549 cancer cells were grown as nearly confluent monolayer culture and then starved overnight in medium containing 0.5% FCS. Cell monolayers were then scratched using pipette tip, photographed, and incubated with a 6 log-scaled concentration range of ME and CME from 10^−3 to 10^−8M, with or without 2% FCS. After 12 H, areas were fixed, stained and photographed using computer-assisted microscopy. Micrographs (4× magnification) are presented, showing the A549 cancer cell migration across the scratches in absence of serum (no migration), presence of serum (migration), and in the presence of serum plus CME or ME at 100 μM or 100 nM.
Wound-Healing Assay: Cancer cells migration was measured using an “in vitro wound-healing assay” (or scratch assay) performed in a 12-well plate (Becton Dickinson). Briefly, cancer cells were seeded at a density of 5-10×10^4 cells per well, grown to near confluent monolayers in 10% serum-supplemented M5 medium and then starved overnight in a low serum medium (0.5% FCS). Perpendicular wounds were scratched through the cell monolayer using a sterile 200 μL pipette tip. The cells were then washed twice very gently using PBS and the scratched areas were photographed at 4× and 20× magnification using computer-assisted microscopy. […] Each well was photographed at 4× and 20× magnification and the pictures analyzed with CellProfiler2.0 cell image analysis software as previously described, (Carpenter A E, Jones T R, Lamprecht M R, Clarke C, Kang I H et al. (2006), Genome Biology 7(10):R100). The migration in response to the test condition was calculated as cell coverage of the original cell-free zone and related to DMSO vehicle control.

[2] = tested on: A549, H1975, and H299 cancer cells; test: transwell migration, panel of NSCLC lines; type: cell-based, human; conditions: for IC50: Homo sapiens, range over A549, H1975 and H299, read-out: IC50 values across cell lines; for toxicity and effects on cell proliferation: in the millimolar range
Experimental: Migration assay: Cancer cell chemotaxis was performed towards a serum gradient in a modified Boyden chamber consisting of a cell culture insert (6.4 mm diameter, 8-μm pore polyethylene tetraphtalate membrane, [Becton Dickenson]) seated in each well of a 24-well companion plate (Becton Dickinson). Briefly, cancer cells were grown as subconfluent monolayer cultures then starved for 36 hours in serum-free M5 medium. After detachment and dissociation with 5 mM EDTA, single-cell suspensions were prepared by filtration through a 35 μm mesh cell strainer (Becton Dickinson). Cells were counted and a total of 10^5 cells suspended in serum-free medium were seeded into the upper chamber of an insert, then positioned in a 24-well plate, containing medium with or without 10% serum. When used, drugs or DMSO (vehicle) were added to the medium at 0.2% in both chambers. Migration assays were carried out for 12 hours in a humidified incubator at 37° C. with 5% CO2. Cells were then fixed with 3.7% formaldehyde, permeabilized with ice cold methanol and stained with a 0.2% Crystal violet solution. Non-migratory cells on the upper side of the insert were removed with a cotton swab. For quantification, three randomly selected fields on the lower side of the insert were photographed at 4× and 20× magnification using computer-assisted microscopy, and analyzed with CellProfiler2.0 cell image analysis software). The migration in response to the test condition was calculated relative to the DMSO vehicle control.
This assay provided reproducibly robust data, allowing dose-response studies to be carried out to determine the half maximal inhibitory concentration (IC50). […] Because we noticed a mild toxicity and effects on cell proliferation in the millimolar range, experiments with CME and ME at 1 mM or more were not included for the IC50 calculation.
Lung Cancer cell lines chemotaxis was performed in cell culture inserts after serum starvation and an overnight preincubation with an incremental logarithmic scale of drug concentration (ME and CME from 10^−3 to 10^−10M). Cancer cell migration in response to a serum gradient was measured after a 12 hour-long incubation in presence of different concentrations of ME or CME in both upper and lower chamber (three wells at each dose). Cells were then fixed and stained with Crystal violet, and photographed. […] Data are expressed as the mean+/−SEM of three independent experiments. Each experiment was performed in triplicate.

| SMILES | migration in response to a scratch wound [1] | IC50 [2] | toxicity and effects on cell proliferation [2] | inhibition of migration ([1]; submicromolar concentrations) |
| --- | --- | --- | --- | --- |
| CO[C@H]1/C=C/CCCCCOC/C(C)=C\[C@@H](C)[C@@H]1O [ME, migrastatin ether] | almost completely blocked | 1.5 to 8.2 µM | mild toxicity |  |
| CO[C@H]1/C=C/CCCCCOC/C(C)=C\[C@@H](C)[C@@H]1OCC(=O)O [CME, Carboxymethyl migraether] | almost completely blocked | 0.5 to 5 µM | mild toxicity | 32% |
